Laboratory results reported in patent publication US10464928B2, “Amino pyrimidine SSAO inhibitors” (Eli Lilly and Company, priority 2016, dated 2019).

Key:
[1] = tested on: SSAO activity in rat plasma and liver tissues; assay: SSAO Target Engagement (residual SSAO activity in rat plasma and liver after dosing); type: in vivo; details: doses 0.005-15 mg/kg
Experimental: The SSAO activity in rat plasma and liver tissues are measured using the MAO-Glo™ assay kit from Promega (V1402). The residual SSAO activity in rats after compound treatment is estimated by measuring the total amine oxidase activity in plasma or liver lysates that are insensitive to the presence of the MAO inhibitor Clogyline and Pargyline. Rats are administered the compound of Example 2 at the doses of 15, 3, 0.6, 0.12, 0.025, 0.005 mg/kg. The control group is administered with the same volume (2 ml/kg) of the dosing vehicle (hydroxyethyl cellulose 1% w/v, 0.25% Tween 80). Plasma and liver at 2 or 24 hours post compound treatment are harvested and stored at −78° C. until analysis. Tissue lysates are prepared by homogenization in a lysis buffer (20 mM HEPES, pH 7.4, 150 mM NaCl, 1 mM EDTA, 1 mM EGTA, 1% Triton X-100 and 1× Roche Complete protease inhibitor tablet). Tissue particles are removed by centrifugation at 12,000 rpm at 4° C. for 30 minutes. 40 μl of plasma or liver lysates is incubated with Clogyline (10 μM) and Pargyline (10 μM) for 20 minutes at room temperature before the addition of the luminogenic substrate (50 μM) for 60 minutes. The product generated is quantified according to the manufacture's procedure. […] The compound of Example 2 was evaluated in the protocol essentially as described above administered at various doses.

[2] = Plasma compound level in 3H diet mice by mass spectroscopy; type: in vivo, Male C57BL/6N mice; details: treated mice, all doses
Experimental: Male C57BL/6N mice are fed with D09100301 diet (Research Diets, 40% fat, 2% cholesterol, 24% fructose, (the, high fat, high cholesterol and high fructose, the “3H diet”) for 150 days. Each mouse is then singly housed after 5 days for an acclimation period. Plasma alanine aminotransferase (ALT) and cytokeratin 18 (CK18) are measured. After one week of recovery, the mice are randomized into 5 groups based on their ALT values, CK18 values, and body weight. Animals of each group are administrated either vehicle (0.5% methylcellulose (MC)+0.25% Tween 80 in distilled water) or the compound of Example 6 (at a 0.06, 2, 6, and 20 mg/kg dose) once daily in a volume of 5 ml/kg for 11 weeks. Blood is collected from mice treated with the compound of Example 6 for 76 days 2 hours after the last dose. Compound levels in the plasma are analyzed by mass spectroscopy.

[3] = tested on: NASH and fibrosis induced by 3H diet; assay: Mouse Model of NASH and Fibrosis Induced by 3H Diet; type: in vivo, Male C57BL/6N mice; details: for Perisinusoidal fibrosis Left, Score (0-3) / Hepatic inflammation Left, Score (0-3) / Macrovesicular vaculation Left, Score (0-3): left lobe; for Perisinusoidal fibrosis Left, Score (0-3): vehicle 2.5 ± 0.2; for Hepatic inflammation Left, Score (0-3) / Macrovesicular vaculation Left, Score (0-3) / Macrovesicular vaculation Right, Score (0-3): vehicle 2.8 ± 0.1; for Perisinusoidal fibrosis Right, Score (0-3) / Hepatic inflammation Right, Score (0-3) / Macrovesicular vaculation Right, Score (0-3): right lobe; for Perisinusoidal fibrosis Right, Score (0-3): vehicle 2.3 ± 0.1; for Hepatic inflammation Right, Score (0-3): vehicle 2.7 ± 0.1
Experimental: Male C57BL/6N mice are fed with D09100301 diet (Research Diets, 40% fat, 2% cholesterol, 24% fructose, (the, high fat, high cholesterol and high fructose, the “3H diet”) for 150 days. Each mouse is then singly housed after 5 days for an acclimation period. Plasma alanine aminotransferase (ALT) and cytokeratin 18 (CK18) are measured. After one week of recovery, the mice are randomized into 5 groups based on their ALT values, CK18 values, and body weight. […] Blood is collected from mice treated with the compound of Example 6 for 76 days 2 hours after the last dose. Compound levels in the plasma are analyzed by mass spectroscopy. […] At the completion of the study, the animals are sacrificed and their livers excised. Two sections of the left and right lobes are fixed in neutral buffered 10% formalin. Liver tissue slides are stained with hematoxylin and eosin (H&E), Sirius red, and Masson's Trichrome to prepare slides for pathological analysis. All specimens are examined microscopically and scored as a modified Brunt score NASH Activity Score. Scores are based on the grading scheme and end-points as described in Brunt E. M, et al., “Histopathology of nonalcoholic fatty liver disease,” World J. of Gastroenterol, 2010, 16(42), 5286-5296. Group means are then calculated for each individual end-point. The following endpoints are used to characterize the fast food model of NASH in mice as modified from NASH endpoints (See Brunt, E. M. “Histopathology of nonalcoholic fatty liver disease,” Clin Liver Dis., 2009, 13, 533-544 and Brunt, E. M, et al., “Nonalcoholic steatohepatitis: A proposal for grading and staging the histological lesions”, Am J Gastroenterology, 1999, 94(9), 2467-2474.

## Cl.Cl.NC/C(=C\F)COc1cnc(N2CCC(O)CC2)nc1 [Example 2, 1-[5-[(E)-2-(Aminomethyl)-3-fluoro-allyloxy]pyrimidin-2-yl]piperidin-4-ol dihydrochloride]
[1]
  SSAO activity in rat plasma and liver (result in words): dose-dependently inhibits SSAO activity

## Cl.Cl.NC/C(=C\F)COc1cnc(N2CC[C@H](O)C2)nc1 [Example 6, (3S)-1-[5-[(E)-2-(Aminomethyl)-3-fluoro-allyloxy]pyrimidin-2-yl]pyrrolidin-3-ol; Dihydrochloride]
[2]
  plasma compound levels (result in words): dose-dependent increase
[3]; 0.6 mg/kg once daily 11 weeks
  Perisinusoidal fibrosis Left, Score (0-3): 2.4 ± 0.2
  Hepatic inflammation Left, Score (0-3): 2.6 ± 0.1
  Macrovesicular vaculation Left, Score (0-3): 2.5 ± 0.1
  Perisinusoidal fibrosis Right, Score (0-3): 1.9 ± 0.2
  Hepatic inflammation Right, Score (0-3): 2.5 ± 0.1
  Macrovesicular vaculation Right, Score (0-3): 2.6 ± 0.1
[3]; 2 mg/kg once daily 11 weeks
  Perisinusoidal fibrosis Left, Score (0-3): 2.5 ± 0.2
  Hepatic inflammation Left, Score (0-3): 2.5 ± 0.1
  Macrovesicular vaculation Left, Score (0-3): 2.5 ± 0.1
  Perisinusoidal fibrosis Right, Score (0-3): 1.8 ± 0.2
  Hepatic inflammation Right, Score (0-3): 2.6 ± 0.1
  Macrovesicular vaculation Right, Score (0-3): 2.7 ± 0.1
[3]; 6 mg/kg once daily 11 weeks
  Perisinusoidal fibrosis Left, Score (0-3): 2.6 ± 0.2
  Hepatic inflammation Left, Score (0-3): 2.5 ± 0.2
  Macrovesicular vaculation Left, Score (0-3): 2.9 ± 0.1
  Perisinusoidal fibrosis Right, Score (0-3): 2.1 ± 0.3
  Hepatic inflammation Right, Score (0-3): 2.6 ± 0.2
  Macrovesicular vaculation Right, Score (0-3): 2.7 ± 0.1
[3]; 20 mg/kg
  hepatic inflammation (result in words): significant decrease
  macrovesicular vaculation (result in words): significant decrease
  perisinusoidal fibrosis (result in words): significant decrease
[3]; 20 mg/kg once daily 11 weeks
  Perisinusoidal fibrosis Left, Score (0-3): 1.9 ± 0.2
  Hepatic inflammation Left, Score (0-3): 2.1 ± 0.1
  Macrovesicular vaculation Left, Score (0-3): 2.4 ± 0.2
  Perisinusoidal fibrosis Right, Score (0-3): 1.5 ± 0.2
  Hepatic inflammation Right, Score (0-3): 2.1 ± 0.1
  Macrovesicular vaculation Right, Score (0-3): 2.3 ± 0.1
[3]; 6 and 20 mg/kg
  triglyceride levels in blood (result in words): decreased
[3]; all groups of treated mice vs vehicle
  ALT (result in words): significant decrease
